Results as given in patent US6407072B1, “Lysoganglioside derivatives” (Fidia S.p.A., priority 1988, dated 2002).

Tests used:
PKC [1] = test: Translocation of PKC induced by glutamate: [3H]-phorbol ester binding on intact cells; format: cell-based, rat; conditions: for inhibition of PKC translocation, cotreatment and prolonged incubation: cotreatment 35 minutes with glutamate, then prolonged exposure (35 minutes)
Protocol: (§1) 1.a. Primary cultures of cerebral granule cells from 8-day-old Sprague Dawley rats (Zivic Miller) [Gallo V. et al., Proc. Natl. Acad. Sci. USA 79, 7919-7923 (1982)]. These cultures contain >90% of granule cells, <5% of GABAergic neurons and <5% of glial cells [Vaccarino F. M. et al., J. Neurosci. 7, 65-76 (1987)]. The cells were used for the experiments on the 8th and 9th days of culture.
(§2) On the 8th and 9th days of culture, concentrations varying between 7 and 100 μM of the following substances are added: N-dichloro acetyl lyso GM1, N-monochloro acetyl lyso GM1, GT1b, GM1. More particularly, the monolayers of granule cells are preincubated with these compounds in Locke's solution (1 ml) for 120 minutes (or for periods of time varying between 0 and 120 minutes) at 37° C. Gangliosides and derivatives are previously dissolved and subsequently diluted, if necessary, in methanol: H2O/95:5. Aliquots of the solution are dried in a N2 current and gathered with a suitable volume of Locke's solution until the final concentration is reached.
1.d. Translocation of PKC induced by glutamate: assessment of [3H]-phorbol ester binding on intact cells.
The effects of binding of [3H]-phorbol ester are assessed under two different types of experimental conditions: […]
[…] After cotreatment the cells-are washed and [^3H]-PDBu binding is assessed in the presence of Mg^+2. Granule cells are grown on discs measuring 35 mm in diameter and then washed and incubated with Locke's solution containing 4-B-[^3H]-phorbol-12, 13-dibutyrate [^3H]-P(Bto)2, 12.5 Ci/mmol (1 Ci=37 GBq; New England Nuclear), in 0.1% fatty acid-free bovine albumin serum (Sigma Chemical Co.). […] The binding is constant for over one hour. After incubation the cells are washed 3 times with cold Locke's solution and suspended with NaOH 0.1M. The aliquots of suspension are used for protein determination [Lowry O. H. et al., J. Biol. Chem. 193, 256-275 (1951)]. Non-specific binding is assessed in the presence of 2 μM phorbol 12-tetradecanoate 13-acetate (PTA).

cerebral granule cells [2] = test: Glutamate-induced neurotoxicity in primary cultures of cerebral granule cells (cell survival); format: cell-based, rat; conditions: for protection of cells from neurotoxic effect of glutamate, cotreatment: cotreatment 15 minutes with glutamate 50 μM; for protection from neurotoxic effect, cotreatment and prolonged incubation: cotreatment 35 minutes with glutamate, then prolonged exposure (35 minutes); for reversal of neurotoxic effect of glutamate by post-treatment: post-treatment 20 minutes, after glutamate administered intermittently; for prevention of glutamate-induced neurotoxicity: pretreatment for 2 hours; for concentration required for maximum protective effect: pretreatment
Protocol: as §1, §2
1.c. Glutamate-induced neurotoxicity.
The neurotoxic effect of glutamate was assessed under various experimental conditions:
Influence of incubation time ([…]) of the substances before exposure to glutamate: intact cells are preincubated with N-dichloro acetyl lyso GM1, N-monochloro acetyl lyso GM1 (7 μM) and GT1b (60 μM) at 37° C. After removal of excess compound by washing, the cells are incubated with 50 μM of glutamate in the absence of Mg+2 for 15 minutes at room temperature after which the cells are washed three more times and then replaced in the medium. Cell survival is assessed after 24 hours by histochemical techniques, or after […] staining which gives green fluorescence to live cells and red to non-living cells.
Influence of the time interval between pre-treatment with ganglioside derivatives or gangliosides themselves and exposure to glutamate: intact granule cells are preincubated for 2 hours at 37° C. with N-dichloro acetyl lyso GM1 (7 μM) GT1b and GM1 (100 μM). Excess compound is removed by washing and the cells exposed to 50 μM of glutamate (in the absence of Mg^+2) for 15 minutes after various time intervals (1, 2, 4, 6, 12, 18, 24 and 48 hours).
Effect of simultaneous treatment with glutamate and gangliosides: intact granule cells are treated (15 and 35 minutes) with 50 μM of glutamate and the gangliosides N-dichloro acetyl lyso GM1 (7 μM), GT1b and GM1 (100 μM) . In the first type of experiment (cotreatment for 15 minutes) the excess compound is removed by washing, and then cell survival is assessed according to the described method. In the second type of experiment (cotreatment for […]) the cotreatment is prolonged for another 35 minutes of exposure to gangliosides.
Effect of N-dichloro acetyl lyso GM1 following intermittent exposure to glutamate: granule cells are exposed intermittently to glutamate and treated with N-dichloro acetyl lyso GM1 (7 μM) for 20 minutes (in the absence of Mg2+). The excess product is removed by washing.

Granule cells = test: N2 anoxia in granule cells, viability by MTT; format: cell-based, rat; conditions: for protection against endogenous glutamate-induced neurotoxicity under anoxic conditions: anoxia in N2 chamber; for MTT O.D. (570-630): N2 anoxia in absence of Mg2+; for MTT O.D. (570-630) / MTT O.D. as % of Control (+ MG^2+): MTT after 24 hours; for MTT O.D. as % of Control (+ MG^2+): N2 anoxia
Protocol: Pretreatment was performed with LIGA 20 and 21 for 10 minutes, and with GM1 for 60 minutes. The cells are washed with serum and placed in anoxic conditions in the absence of Mg^+2 for 5 hours and replaced in the culture medium. Cell viability was measured 24 hours after with MTT.
as §1
Effect of N-dichloro acetyl lyso GM1 following cell anoxia (in N2 chamber) on protection from endogenous glutamate-induced neurotoxicity. Cell viability is assessed by colorimetry after 24 hours (MTT stains only live cells).

new-born rat = test: NMDA-induced neurotoxicity in new-born rat (mortality); format: in vivo; conditions: for mortality (deceased/treated) / relative mortality (% of treated): up to 5 days; for protection from mortality following i.c.v. injection of NMDA: s.c., 1 hour before and immediately after NMDA
Protocol: Newborn rats (7 days old) weighing about 13 g are injected with 25 nmol NMDA i.c.v. Under these conditions the excitotoxin induces a decrease of 28% in weight of the injected hemisphere and a mortality rate of 53.6%.
Administration of the compounds: injection method and parameters observed. […] The compounds were solubilized in PBS. The N-dichloro acetyl lyso GM1 and N-monochloro acetyl lyso GM1 derivatives were tested in comparison to magnesium sulfate, MK-801 (a non-competitive […] of the NMDA receptor) [G. McDonald et al., Eur. J. Pharmacol. 140: 153-157 (1987)] and kinurenic acid [P. Andiné, Neuro-science Letters, 90: 208-212 (1988)] which is capable of diminishing brain damage. Mortality was assessed 5 days after MNDA injection.

[3] = system: Mouse neuroblastoma cells (N2A); test: MTT in N2A cells; format: cell-based
[4] = system: Mouse neuroblastoma cells (N2A); test: 3H Tdr in N2A cells; format: cell-based
[5] = system: Mouse neuroblastoma cells (N2A); test: Neuritogenic activity in N2A cells: morphology, % of cells with neurites; format: cell-based
Protocol: Mouse neuroblastoma cells (N2A) at the 180th passage are placed in wells at a concentration of 10,000 cells per well (COSTAR-24). The next day the medium was substituted with 350 μl of DMEM+P/G+10% FCS.
All compounds are dissolved in chloroform/methanol 2:1 dried in N2 current and resuspended in DMEM+P/G+10% FCS. The number of neurites is assessed 24 hours later.

cerebral granule cells [6] = conditions: literature reports; cited from earlier work
PKC [7] = conditions: exposure of cerebral granule cells; literature reports; cited from earlier work
[8] = cotreatment with glutamate 50 μM, 7 μM
[9] = 200 nMoli/animal sc, 1 hr before and immediately after NMDA 25 nMoli i.c.v.
[10] = 75 nMoli/animal (2 mg/kg) i.p., 1 hr before and immediately after NMDA
[11] = preincubated 2 hours at 100 μM, glutamate 50 μM

Row | Molecule | concentration required for maximum protective effect (cerebral granule cells [2]; glutamate 50 μM) | protection against endogenous glutamate-induced neurotoxicity under anoxic conditions (Granule cells) | MTT O.D. (570-630) (Granule cells; pretreated 5 μm, 10 min) | MTT O.D. as % of Control (+ MG^2+) (Granule cells; pretreated 5 μm, 10 min) | mortality (deceased/treated) (new-born rat; [9]) | relative mortality (% of treated) (new-born rat; [9]) | protection from mortality following i.c.v. injection of NMDA (new-born rat) | MTT (48 hr) n = 3 ([3]; 1 × 10^−4 M) | ^3H Tdr. (48 hr) n = 3 ([4]; 1 × 10^−4 M) | Morphology (24 hr) % of cells with neurites ([5]; 1 × 10^−4 M) | inhibition of PKC translocation, cotreatment and prolonged incubation (PKC [1]; 100 μM) | protection of cells from neurotoxic effect of glutamate, cotreatment (cerebral granule cells [2]; 100 μM) | protection from neurotoxic effect, cotreatment and prolonged incubation (cerebral granule cells [2]; 100 μM) | persistence of protective effect on glutamate-induced neurotoxicity after removal of the medium (cerebral granule cells [2]; [11]) | protection from glutamate-induced cell damage (cerebral granule cells [6]) | translocation and activation of PKC induced by glutamate (PKC [7]) | other results
1 | CCCCCCCCCCCCCC=CC(O)C(COC1OC(CO)C(OC2OC(CO)C(OC3OC(CO)C(O)C(OC4OC(CO)C(O)C(O)C4O)C3NC(C)=O)C(OC3(C(=O)O)CC(O)C(NC(C)=O)C(C(O)C(O)CO)O3)C2O)C(O)C1O)NC(=O)C(Cl)Cl (stereo not drawn) [LIGA 20, N-dichloroacetyl Lyso GM1] | 7 µM | active | 0.163 ± 0.012 O.D. | 112% | 1/8 | 12.5% | protected |  |  |  |  |  |  |  |  |  | inhibition of PKC translocation, cotreatment and prolonged incubation (PKC [1]; 7 μM): effective; inhibition of PKC translocation induced by glutamate, cotreatment (PKC [1]; [8]): inhibits; time of maximum activity in inhibiting PKC translocation (PKC [1]; [8]): 30 min; concentration for maximum effect, times less than that of GT1b (cerebral granule cells [2]; 7 μM vs 60 μM): more than 8 times; preincubation time after which protection is evident (cerebral granule cells [2]; 7 μM, glutamate 50 μM): 5 min; protection of cells from neurotoxic effect of glutamate, cotreatment (cerebral granule cells [2]; 7 μM): effective; protection from neurotoxic effect, cotreatment and prolonged incubation (cerebral granule cells [2]; 7 μM): effective; reversal of neurotoxic effect of glutamate by post-treatment (cerebral granule cells [2]; 7 μM): prevents; reversal of neurotoxic effect of glutamate by post-treatment (cerebral granule cells [2]; 7 μM, listed as N-dichloro acetyl lyso GM1): active; persistence of protective effect on glutamate-induced neurotoxicity after removal of the medium (cerebral granule cells [2]; preincubated 2 hours at 7 μM, glutamate 50 μM): at least 24 hours; prevention of glutamate-induced neurotoxicity (cerebral granule cells [2]; 7 μM, glutamate 50 μM): almost totally prevents
2 | CCCCCCCCCCCCC/C=C/[C@@H](O)[C@H](CO[C@@H]1O[C@H](CO)[C@@H](O[C@@H]2O[C@H](CO)[C@H](O[C@@H]3O[C@H](CO)[C@H](O)[C@H](O[C@@H]4O[C@H](CO)[C@H](O)[C@H](O)[C@H]4O)[C@H]3NC(C)=O)[C@H](O[C@]3(C(=O)O)C[C@H](O)[C@@H](NC(C)=O)[C@H]([C@H](O)[C@H](O)CO)O3)[C@H]2O)[C@H](O)[C@H]1O)NC(=O)CCl [LIGA 21, N-Monochloroacetyl Lyso GM1] |  | active | 0.152 ± 0.013 O.D. | 105% | 0/8 | 0% | protected | 0.158 ± 0.01 | 14256 ± 1594 | 80-90% |  |  |  |  |  |  | MTT (48 hr) n = 3 ([3]; 5 × 10^−5 M): 0.243 ± 0.008; MTT (48 hr) n = 3 ([3]; 5 × 10^−6 M): 0.324 ± 0.01; ^3H Tdr. (48 hr) n = 3 ([4]; 5 × 10^−5 M): 36016 ± 5030; ^3H Tdr. (48 hr) n = 3 ([4]; 5 × 10^−6 M): 43035 ± 487; concentration range of protection (cerebral granule cells [2]; glutamate-induced neurotoxicity): ~10 µM; Morphology (24 hr) % of cells with neurites ([5]; 5 × 10^−5 M): 80-90%; Morphology (24 hr) % of cells with neurites ([5]; 5 × 10^−6 M): <5%
3 | C[C@]12N[C@H](Cc3ccccc31)c1ccccc12 [MK 801, reference compound] |  |  |  |  |  |  |  |  |  |  |  |  |  |  |  |  | mortality (deceased/treated) (new-born rat; [10]): 6/16; relative mortality (% of treated) (new-born rat; [10]): 37%
4 | N′-monochloro acetyl lyso GM1 [LIGA 22] |  |  |  |  |  |  |  |  |  | <5% |  |  |  |  |  |  | 
5 | monosialosyl-N-tetraglycosyl-ceramide [GM1, reference compound] |  |  |  |  |  |  |  | 0.259 ± 0.007 | 40834 ± 1885 | 70-80% | effective | is not | effective | no more than 1 hours | offer protection | inhibits | MTT O.D. (570-630) (Granule cells; pretreated 100 μM, 60 min): 0.160 ± 0.010 O.D.; MTT O.D. as % of Control (+ MG^2+) (Granule cells; pretreated 100 μM, 60 min): 110%
6 | trisialosyl-N-tetraglycosylceramide [GT1b, reference compound] | 60 µM |  |  |  |  |  |  |  |  |  | effective | is not | effective | 4 h | offer protection | inhibits | incubation time after which protection is significant (cerebral granule cells [2]; 60 μM, glutamate 50 μM): 60 min; prevention of glutamate-induced neurotoxicity (cerebral granule cells [2]; 60 μM, glutamate 50 μM): almost totally prevents
